Assay results taken from patent US12098148B2, “Therapeutic compounds” (C4X Discovery Limited, priority 2018, dated 2024).
Where two headings read alike, the source gives them in different places.

Legend:
[1] = tested on: NQO1 mRNA in BEAS-2B cells; experiment: Beas2B NQO1 mRNA cell based assay; design: species or system human; conditions: 24 h compound treatment, increase in NQO1 mRNA vs vehicle (0.1% DMSO), read-out: EC50
Outline: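 Relative NQO1 transcript level derived by ΔΔCT with human β-actin as internal control, using direct-lysate one-step RT-qPCR. Cells were BEAS-2B, plated overnight then treated with compound for 24 h.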

[2] = biological target: human KEAP1 (N-term, residues 321-609) (Homo sapiens, UniProt Q14145); experiment: biochemical;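 also: fluorescence polarization competition assay of Kelch domain binding to NRF2, 12-point 1:3 dilution series from 10 µM, read after 1 h at room temperature, floor 10 nM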
Sequence of human KEAP1 (N-term, residues 321-609) (Q14145 321-609): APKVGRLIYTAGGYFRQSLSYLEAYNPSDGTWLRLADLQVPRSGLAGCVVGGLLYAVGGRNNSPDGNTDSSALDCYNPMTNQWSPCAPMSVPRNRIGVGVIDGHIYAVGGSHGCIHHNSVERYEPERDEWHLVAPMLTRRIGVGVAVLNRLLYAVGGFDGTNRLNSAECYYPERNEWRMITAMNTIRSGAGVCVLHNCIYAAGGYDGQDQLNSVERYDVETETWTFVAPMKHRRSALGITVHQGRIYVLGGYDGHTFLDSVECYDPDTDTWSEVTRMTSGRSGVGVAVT
Description: Biological Assays KEAP1 Kelch Fluorescence Polarization (FP) Assay Method
Inhibition of the Kelch domain-NRF2 interaction was determined using a fluorescence polarization-based competition assay in a black 384-well microplate. Compounds were tested at a starting concentration of 10 μM serially diluted 1:3 to generate a 12-point dose response curve on the Biomek FX robot.
After 1 h at room temperature, fluorescence polarization (excitation 470 nm/emission 530 nm) was measured using an Envision plate reader. IC50 values were determined by fitting the data to a four parameter logistic fit using XLfit or XE Runner within ActivityBase.

Row | Compound | IC50 [2] [nM] | EC50 ([1]; Homo sapiens, BEAS-2B, 24 h) [nM] | EC50 [1] [nM]
1 | Cn1nnc2cc(COc3ccc(Cl)c4c3[C@@H](CN3Cc5ccccc5C3=O)N(C(=O)[C@@H]3CCCC[C@@H]3C(=O)O)CC4)ccc21 [Example 48, (1S,2R)-2-((S)-5-chloro-8-((1-methyl-1H-benzo[d][1,2,3]triazol-5-yl)methoxy)-1-((1-oxoisoindolin-2-yl)methyl)-1,2,3,4-tetrahydroisoquinoline-2-carbonyl)cyclohexane-1-carboxylic acid] | 8 | 4.4 | –
2 | Cc1cc(C(=O)NCCOc2cccc3c2[C@@H](CN2C(=O)c4ccccc4C2=O)N(C(=O)[C@@H]2CCCC[C@@H]2C(=O)O)CC3)no1 [Example 1, (1S,2R)-2-((S)-1-((1,3-Dioxoisoindolin-2-yl)methyl)-8-(2-(5-methylisoxazole-3-carboxamido)ethoxy)-1,2,3,4-tetrahydroisoquinoline-2-carbonyl)cyclohexanecarboxylic acid] | 12 | 850 | –
3 | CC1CCN(C[C@@H]2c3c(OCc4cn(C(C)C)nn4)ccc(Br)c3CCN2C(=O)[C@@H]2CCCC[C@@H]2C(=O)O)C1=O (single isomer, unassigned) [Example 74] | 6.8 | – | 22
4 | Cn1nnc2cc(COc3cccc4c3[C@@H](CN3C(=O)c5ccccc5C3=O)N(C(=O)[C@@H]3CCCC[C@@H]3C(=O)O)CC4)ccc21 [Example 8, (1S,2R)-2-((S)-1-((1,3-Dioxoisoindolin-2-yl)methyl)-8-((1-methyl-1H-benzo[d][1,2,3]triazol-5-yl)methoxy)-1,2,3,4-tetrahydroisoquinoline-2-carbonyl)cyclohexane-1-carboxylic acid] | 8.2 | 48 | –
5 | Cc1nnc(COc2ccc(Cl)c3c2[C@@H](CN2CCCC2=O)N(C(=O)[C@@H]2CCCC[C@@H]2C(=O)O)CC3)n1C [Example 103, (1S,2R)-2-((S)-5-chloro-8-((4,5-dimethyl-4H-1,2,4-triazol-3-yl)methoxy)-1-((2-oxopyrrolidin-1-yl)methyl)-1,2,3,4-tetrahydroisoquinoline-2-carbonyl) cyclohexane-1-carboxylic acid] | 6.7 | 67 | –
6 | Cc1cnnc(N2CC[C@H](Oc3ccc(Br)c4c3[C@@H](CN3Cc5ccccc5C3=O)N(C(=O)[C@@H]3CCCC[C@@H]3C(=O)O)CC4)C2)c1 [Example 22, (1S,2R)-2-((S)-5-bromo-8-(((S)-1-(5-methylpyridazin-3-yl)pyrrolidin-3-yl)oxy)-1-((1-oxoisoindolin-2-yl)methyl)-1,2,3,4-tetrahydroisoquinoline-2-carbonyl)cyclohexane-1-carboxylic acid] | 4.7 | 15 | –
7 | C[C@]1(C(=O)O)CCCC[C@H]1C(=O)N1CCc2c(Cl)cc(F)c(OCc3nnn4c3CCC4)c2[C@H]1CN1CC2(CC2)CC1=O [Example 146, (1S,2R)-2-((S)-5-chloro-8-((5,6-dihydro-4H-pyrrolo[1,2-c][1,2,3]triazol-3-yl)methoxy)-7-fluoro-1-((6-oxo-5-azaspiro[2.4]heptan-5-yl)methyl)-1,2,3,4-tetrahydroisoquinoline-2-carbonyl)-1-methylcyclohexane-1-carboxylic acid] | 5.7 | 0.23 | –
8 | CCn1ccc(COc2ccc(Cl)c3c2[C@@H](CN2Cc4ccccc4C2=O)N(C(=O)[C@@H]2CCCC[C@@H]2C(=O)O)CC3)n1 [Example 55, (1S,2R)-2-((S)-5-chloro-8-((1-ethyl-1H-pyrazol-3-yl)methoxy)-1-((1-oxoisoindolin-2-yl)methyl)-1,2,3,4-tetrahydroisoquinoline-2-carbonyl)cyclohexane-1-carboxylic acid] | 5.6 | 73 | –
9 | Cn1cnc(COc2ccc(Cl)c3c2[C@@H](CN2Cc4ccccc4C2=O)N(C(=O)[C@@H]2CCCC[C@@H]2C(=O)O)CC3)c1C(F)F [Example 56, (1S,2R)-2-((S)-5-Chloro-8-((5-(difluoromethyl)-1-methyl-1H-imidazol-4-yl)methoxy)-1-((1-oxoisoindolin-2-yl)methyl)-1,2,3,4-tetrahydroisoquinoline-2-carbonyl)cyclohexane-1-carboxylic acid] | 4.2 | 4.8 | –
10 | Cn1ccc(COc2ccc(Cl)c3c2[C@@H](CN2CC4(CC4)CC2=O)N(C(=O)[C@@H]2CCCC[C@]2(C)C(=O)O)CC3)cc1=O [Example 148, (1S,2R)-2-((S)-5-chloro-8-((1-methyl-2-oxo-1,2-dihydropyridin-4-yl)methoxy)-1-((6-oxo-5-azaspiro[2.4]heptan-5-yl)methyl)-1,2,3,4-tetrahydroisoquinoline-2-carbonyl)-1-methylcyclohexane-1-carboxylic acid] | 6.6 | 22 | –
11 | Cc1cc(COc2ccc(Cl)c3c2[C@@H](CN2Cc4ccccc4C2=O)N(C(=O)[C@@H]2CCCC[C@@H]2C(=O)O)CC3)no1 [Example 49, (1S,2R)-2-((S)-5-chloro-8-((5-methylisoxazol-3-yl)methoxy)-1-((1-oxoisoindolin-2-yl)methyl)-1,2,3,4-tetrahydroisoquinoline-2-carbonyl)cyclohexane-1-carboxylic acid] | 11 | 19 | –
12 | Cc1ncc(C(=O)N2CC[C@H](Oc3ccc(Br)c4c3[C@@H](CN3Cc5ccccc5C3=O)N(C(=O)[C@@H]3CCCC[C@@H]3C(=O)O)CC4)C2)s1 [Example 20, (1S,2R)-2-((S)-5-Bromo-8-(((S)-1-(2-methylthiazole-5-carbonyl)-pyrrolidin-3-yl)oxy)-1-((1-oxoisoindolin-2-yl)methyl)-1,2,3,4-tetrahydroisoquinoline-2-carbonyl)cyclohexane-1-carboxylic acid] | 5.4 | 20 | –

Continued, in another order:

Row | IC50 [2] [nM] | Compound | EC50 ([1]; Homo sapiens, BEAS-2B, 24 h) [nM] | EC50 [1] [nM]
13 | 9.2 | Cc1onc(COc2ccc(Cl)c3c2[C@@H](CN2CCCC2=O)N(C(=O)[C@@H]2CCCC[C@]2(C)C(=O)O)CC3)c1Cl [Example 125, (1S,2R)-2-((S)-5-chloro-8-((4-chloro-5-methylisoxazol-3-yl)methoxy)-1-((2-oxopyrrolidin-1-yl)methyl)-1,2,3,4-tetrahydroisoquinoline-2-carbonyl)-1-methylcyclohexane-1-carboxylic acid] | 30 | –
14 | 6.8 | Cn1nnc(COc2ccc(Cl)c3c2[C@@H](CN2CC4(CC4)CC2=O)N(C(=O)[C@@H]2C[C@@H](F)CC[C@]2(C)C(=O)O)CC3)c1C(F)F [Example 218, (1S,2R,4S)-2-((S)-5-chloro-8-((5-(difluoromethyl)-1-methyl-1H-1,2,3-triazol-4-yl)methoxy)-1-((6-oxo-5-azaspiro[2.4]heptan-5-yl)methyl)-1,2,3,4-tetrahydroisoquinoline-2-carbonyl)-4-fluoro-1-methylcyclohexane-1-carboxylic acid] | 0.98 | –
15 | 5.1 | Cn1cc(COc2ccc(Cl)c3c2[C@@H](CN2CCCC2=O)N(C(=O)[C@@H]2CCCC[C@]2(C)C(=O)O)CC3)nn1 [Example 106, (1S,2R)-2-((S)-5-chloro-8-((1-methyl-1H-1,2,3-triazol-4-yl)methoxy)-1-((2-oxopyrrolidin-1-yl)methyl)-1,2,3,4-tetrahydroisoquinoline-2-carbonyl)-1-methylcyclohexane-1-carboxylic acid] | 2.9 | –
16 | 13 | C[C@H]1CCC(=O)N1C[C@@H]1c2c(OCc3nnn(C)c3C(F)F)ccc(Cl)c2CCN1C(=O)[C@@H]1CCCC[C@]1(C)C(=O)O [Example 195, (1S,2R)-2-((S)-5-chloro-8-((5-(difluoromethyl)-1-methyl-1H-1,2,3-triazol-4-yl)methoxy)-1-(((S)-2-methyl-5-oxopyrrolidin-1-yl)methyl)-1,2,3,4-tetrahydroisoquinoline-2-carbonyl)-1-methylcyclohexane-1-carboxylic acid] | 6.8 | –
17 | 8.5 | C[C@]1(C(=O)O)CCCC[C@H]1C(=O)N1CCc2c(Cl)ccc(OCc3nnn(C4COC4)c3C(F)F)c2[C@H]1CN1CC2(CC2)CC1=O [Example 192, (1S,2R)-2-((S)-5-chloro-8-((5-(difluoromethyl)-1-(oxetan-3-yl)-1H-1,2,3-triazol-4-yl)methoxy)-1-((6-oxo-5-azaspiro[2.4]heptan-5-yl)methyl)-1,2,3,4-tetrahydroisoquinoline-2-carbonyl)-1-methylcyclohexane-1-carboxylic acid] | 3.8 | –
18 | 28 | C[C@@H]1CC(=O)N(C[C@@H]2c3c(OCc4nnn(C)c4C(F)F)ccc(Cl)c3CCN2C(=O)[C@H]2CCCC[C@]2(C)C(=O)O)C1 [Example 149, (1S,2S)-2-((S)-5-chloro-8-((5-(difluoromethyl)-1-methyl-1H-1,2,3-triazol-4-yl)methoxy)-1-(((R)-4-methyl-2-oxopyrrolidin-1-yl)methyl)-1,2,3,4-tetrahydroisoquinoline-2-carbonyl)-1-methylcyclohexane-1-carboxylic acid] | 73 | –
19 | 5.4 | C[C@]1(C(=O)O)CCCC[C@H]1C(=O)N1CCc2c(Cl)ccc(OCc3nnc4n3CCC4)c2[C@H]1CN1CC2(CC2)CC1=O [Example 183, (1S,2R)-2-((S)-5-chloro-8-((6,7-dihydro-5H-pyrrolo[2,1-c][1,2,4]triazol-3-yl)methoxy)-1-((6-oxo-5-azaspiro [2.4]heptan-5-yl)methyl)-1,2,3,4-tetrahydroisoquinoline-2-carbonyl)-1-methylcyclohexane-1-carboxylic acid] | 5.8 | –
20 | 5.6 | Cn1nnc(COc2cccc3c2[C@@H](CN2CCCC2=O)N(C(=O)[C@@H]2CCCC[C@]2(C)C(=O)O)CC3)c1C(F)(F)F [Example 190, (1S,2R)-1-methyl-2-((S)-8-((1-methyl-5-(trifluoromethyl)-1H-1,2,3-triazol-4-yl)methoxy)-1-((2-oxopyrrolidin-1-yl)methyl)-1,2,3,4-tetrahydroisoquinoline-2-carbonyl)cyclohexane-1-carboxylic acid] | 8.6 | –
